{"source": "patent US11020372B2", "about": "“Dietary and natural product management of negative side effects of cancer treatment” (UNIVERSITY OF FLORIDA RESEARCH FOUNDATION, INC., priority 2015, dated 2021)", "key": {"[1]": {"system": "Animals", "experiment": "Chemotherapy-induced anemia (CBC: red blood cells, hematocrit, hemoglobin)", "conditions": "for anemia: level of red blood cell count, hemoglobin and hematocrit, chemotherapy agent alone: 20 mg/kg TMZ, 100 mg/kg 5-FU, 40 mg/kg oxaliplatin, two to four weeks; for hemoglobin level, chemotherapeutic agent alone: 100 mg/kg 5-FU or 40 mg/kg oxaliplatin", "method": "Animals were treated with three different chemotherapy agents inducing anemia (20 mg/kg TMZ, 100 mg/kg 5-FU, 40 mg/kg oxaliplatin). After two to four weeks of treatments blood was collected via retro-orbital puncture from the different experimental groups. Blood samples were processed for CBC."}, "[2]": {"system": "Animals", "experiment": "Chemotherapy-induced leukopenia (CBC: white blood cells, neutrophils)", "format": "in vivo", "conditions": "20 mg/kg TMZ, 100 mg/kg 5-FU; two weeks", "method": "Animals were treated with different chemotherapy agents inducing leukopenia (20 mg/kg TMZ, 100 mg/kg 5-FU). […] Blood samples were processed for CBC."}, "[3]": {"system": "neural stem cells", "experiment": "Neurosphere assay of periventricular cells from treated animals", "format": "in vivo, Mice", "conditions": "TMZ [20 mg/kg] or 5-FU [100 mg/kg] for two weeks", "method": "A] Periventricular cells from the brains of animals treated with the indicated treatments were isolated and cultured in the neurosphere assay at clonal density to quantify clonogenic frequency. […] Chemotherapies induced a decline of neural stem cell activity seen by decreased neurosphere formation, which can be improved when combined with our treatment, **, ***, p<0.01, p<0.001, one-way ANOVA. B-C] […] D-E] NSC activity was also measured in the hippocampus, region of the brain involved in cognition.\nMice were fed with control diet or MCT/LC/Curcumin/EGCG/SFN diet. Each dietary group was treated with TMZ [20 mg/kg] or 5-FU [100 mg/kg] for two weeks, after which point brains were harvested and the cells from the periventricular region were cultured at clonal density in the neurosphere assay during one passage (7-14 days) to quantify the sphere forming frequency indicating neural stem cells occurrence in the brains of animals treated with the different treatments."}, "[4]": {"system": "neural stem cells", "experiment": "BrdU immunoreactivity of neural stem cells in sub-ventricular area and hippocampus", "format": "in vivo, Mice", "method": "A] Periventricular cells from the brains of animals treated with the indicated treatments were isolated and cultured in the neurosphere assay at clonal density to quantify clonogenic frequency. […] B-C] […] D-E] NSC activity was also measured in the hippocampus, region of the brain involved in cognition.\nA cohort of animals received three injections of BrdU [50 mg/kg] over a 72-hour time period before to be euthanized. Brains were removed, fixed, sectioned and BrdU antibodies used to identify cells that were in S-phase during the 72 hour injection period."}, "[5]": {"system": "Mice", "experiment": "Paclitaxel-induced nephrotoxicity and hepatotoxicity (kidney and liver mass)", "format": "in vivo", "conditions": "Paclitaxel [5 mg/kg], 3-4 weeks of treatment", "method": "Targeted toxicity of the chemotherapeutic agent Paclitaxel was assessed after 3-4 weeks of treatment via measuring the mass of the kidneys.\nToxicity was assessed after 3-4 weeks of treatment via comparing the mass of the liver.\nAfter four weeks of treatments, the organs were harvested and their mass determined."}, "[6]": {"system": "patients with type 2 diabetes", "conditions": "provided by oral intake of 68 grams of broccoli sprouts; cited from earlier work"}, "[7]": {"conditions": "in vivo; cited from earlier work"}, "[8]": {"system": "neonatal rat", "conditions": "cited from earlier work"}, "[9]": {"system": "rats, guinea pigs and monkeys", "conditions": "cited from earlier work"}, "[10]": {"system": "healthy subjects", "conditions": "5000 to 12,000 mg/day; cited from earlier work"}, "[11]": {"system": "Mice", "experiment": "Von Frey test of mechanosensitivity (chemotherapy-induced peripheral neuropathy)", "conditions": "Von Frey filament 4 g; cumulative 25 mg/kg Paclitaxel, 40 mg/kg Oxaliplatin", "protocol": "Mechanosensitivity was compared between the different experimental groups. Von Frey test filament (4 g) was pressed to the plantar surface of the hindpaw until the filament just bent.\nAnimals were also tested for neuropathic pain using the Von Frey Test where the sensitivity of the animals to mechanical stimulus is measured. Similar to the cold allodynia assay, the animals were tested after cumulative doses of 25 mg/kg paclitaxel and 40 mg/kg oxaliplatin. Von Frey test filament (4 g) was pressed to the plantar surface of the hindpaw until the filament just bent. The percent positive response (i.e. paw withdrawal) was recorded."}, "[12]": {"system": "rodents", "conditions": "oral doses as high as 500 mg/kg in rodents; cited from earlier work"}, "[13]": {"system": "dogs", "conditions": "500 mg/kg/day, divided dosage, pre-fed dogs, 13 weeks; cited from earlier work"}, "[14]": {"conditions": "neonatal rat hypoxic-ischemic injury"}}}
{"compound": "O=c1[nH]cc(F)c(=O)[nH]1", "note": "[5-FU, Fluorouracil]", "values": [{"measurement": "anemia: level of red blood cell count, hemoglobin and hematocrit, chemotherapy agent alone", "setting": "[1]", "result": "induced anemia"}, {"measurement": "hemoglobin level, chemotherapeutic agent alone", "setting": "[1]", "result": "significantly diminished"}, {"measurement": "leukopenia: level of white blood cell and neutrophil count, chemotherapy agent alone", "setting": "[2]", "result": "induced leukopenia"}, {"measurement": "sphere forming cells, chemotherapy agent alone", "setting": "[3]", "result": "decreased number of sphere forming cells"}, {"measurement": "NSC activity (BrdU immunoreactivity) in the sub-ventricular area (SVZ), single treatment versus control", "setting": "[4]; diet alone or 5-FU alone", "result": "reduced level of BrdU+ve cells"}, {"measurement": "number of BrdU-immunoreactive proliferating neural stem cells relative to controls", "setting": "[4]; subventricular area and hippocampus, three BrdU injections [50 mg/kg] over 72 hours", "result": "less number of proliferating neural stem cells"}]}
{"compound": "CC(=O)O[C@H]1C(=O)[C@@]2(C)[C@H]([C@H](OC(=O)c3ccccc3)[C@]3(O)C[C@H](OC(=O)[C@H](O)[C@@H](NC(=O)c4ccccc4)c4ccccc4)C(C)=C1C3(C)C)[C@]1(OC(C)=O)CO[C@@H]1C[C@@H]2O", "note": "[Paclitaxel]", "values": [{"measurement": "mass of the kidneys, drug alone", "setting": "[5]", "result": "significant diminution of the kidney weight"}, {"measurement": "mass of the liver, drug alone", "setting": "[5]", "result": "significant liver enlargement"}]}
{"compound": "C[S+]([O-])CCCCN=C=S", "note": "(centres unmarked) [SFN, sulforaphane]", "values": [{"measurement": "safe non-toxic dose", "setting": "[6]", "result": 100, "unit": "mg"}, {"measurement": "elimination", "setting": "[7]", "result": "long terminal elimination phase"}, {"measurement": "time to peak plasma levels", "setting": "[7]", "result": "≤ 2", "unit": "h"}, {"measurement": "infarct ratio", "setting": "[8]; 24 hours after hypoxic ischemia", "result": "reduced infarct ratio"}, {"measurement": "expression of the Nrf2 antioxidative transcription factor in the brain", "setting": "[8]; [14]", "result": "increased the expression of the Nrf2"}, {"measurement": "number of apoptotic cells", "setting": "[8]; [14]", "result": "significantly decreased the number of apoptotic cells"}]}
{"compound": "Cn1nnc2c(C(N)=O)ncn2c1=O", "note": "[TMZ, Temozolomide]", "values": [{"measurement": "leukopenia: level of white blood cell and neutrophil count, chemotherapy agent alone", "setting": "[2]", "result": "induced leukopenia"}, {"measurement": "sphere forming cells, chemotherapy agent alone", "setting": "[3]", "result": "decreased number of sphere forming cells"}]}
{"compound": "COc1cc(/C=C/C(=O)CC(=O)/C=C/c2ccc(O)c(OC)c2)ccc1O", "note": "[curcumin, Curcumin]", "values": [{"measurement": "toxicity at high doses in preclinical models", "setting": "[9]", "result": "safe"}, {"measurement": "adverse side effects in dose escalation", "setting": "[10]", "result": "no significant adverse side effects"}]}
{"compound": "O=C1[O][Pt]2([NH][C@@H]3CCCC[C@H]3[NH]2)[O]C1=O", "note": "[oxaliplatin, Oxaliplatin]", "values": [{"measurement": "anemia: level of red blood cell count, hemoglobin and hematocrit, chemotherapy agent alone", "setting": "[1]", "result": "induced anemia"}, {"measurement": "hemoglobin level, chemotherapeutic agent alone", "setting": "[1]", "result": "significantly diminished"}, {"measurement": "mechanosensitivity (percent positive response, paw withdrawal), chemotherapy alone, FIG. 12", "setting": "[11]", "result": "increased"}]}
{"compound": "Epigallocatechin-3-gallate [EGCG]", "values": [{"measurement": "genotoxic or short term toxicity", "setting": "[12]", "result": "no genotoxic or short term toxicity"}, {"measurement": "adverse events or toxicity", "setting": "[13]", "result": "no adverse events or toxicity"}]}
